This is an account of results in US8436002B2, “AKT inhibitors” (Eli Lilly and Company, priority 2009, dated 2013).

In one assay the test system is AKT. In words: AKT In Vivo Target Inhibition (Oral and Parenteral), U87MG tumors in athymic nude mice. Particulars: Mus musculus, U-87 MG, after 2 hours at 12.5 mg/kg, mean of 6 animals per group. As to the method: U87MG human glioblastoma cells (5×106) are subcutaneously implanted into the flank of athymic nude mice in 0.2 mL of matrigel. Two weeks post-implantation, mice are dosed orally or parenterally according to a time course, single dose/single time point, or dose response protocol for the determination of TMED50 (threshold minimum effective dose). Tumors are flash frozen at harvest and blood is collected for the determination of parent compound plasma exposure and the calculation of TMEC50 (threshold minimum effective concentration) in the case of dose response studies. Tumors or tissues are pulverized in liquid N2 and lysed in 400 μL of XY Lysis Buffer (10 μg/mL Leupeptin, 10 μg/mL Trypsin-Chymotrypsin Inhibitor, 10 μg/mL Tosyl phenyl-alanyl chloromethyl ketone, 10 μg/mL Aprotinin, 60 mM Beta-Glycerol Phosphate, 1% Triton X100, 25 mM Tris pH 7.5, 2.5 mM Pyrophosphate, 150 mM NaCl, 2 mM p-tosyl-L-arginine methyl ester, 15 mM para-nitrophenyl phosphate, 5 mM Benzamidine, 1 mM Na Vanadate, 10 mM NaF, 50 μg/mL phenyl-methane sulfonyl fluoride, 1 mM 1,4-Dithiothreitol (DTT), 15 mM EDTA pH 8.0, 5 mM EGTA pH 8.0, 1 μM Microcystin, 1 μM Okadaic Acid, and 1 Roche Complete protease inhibitor mini-tablet per 10 mL) using Lysing Matrix D tubes (MP Biomedicals, Solon, Ohio, cat #6913-500) and a BIO101 Thermo Savant Fast Prep FP12. Lysates are aliquoted and either assayed immediately or stored at −80° C. for later testing. In Vivo Target Inhibition of AKT is measured utilizing Meso Scale Discovery (Gaithersburg, Md.) ELISA technology to assess effects on phosphorylation of the downstream effectors FOXO, PRAS40 and GSK3β(S9). In summary, 20 μg of lysate is added to carbon electrode containing 96-well plates pre-spotted with the appropriate capture antibodies. The protein of interest is probed using a ruthenium labeled detection antibody. Upon the passage of current over the electrode in the presence of read buffer containing the co-reactant TPA, electro-chemiluminescence results in the generation of light which is quantified and recorded using the MSD Sector 6000 instrument. For each study, percent inhibitions are calculated relative to the vehicle control group and ANOVA analysis is performed using the JMP software package for the determination of statistical significance.

A further assay has as its system H1155. The assay can be described thus: Cell proliferation combination study (CellTiter-Glo). The assay is classed as cell-based. The protocol:
(§1) The proliferation assay uses the CellTiter-Glo Luminescent Cell Viability Assay System (commercially available from Promega) to determine the cell number of viable cells in culture based on quantitation of the ATP present, which signals the presence of metabolically active cells.
(§2) The cells are plated in 96-well plate at 2000 cells/well in volume of 50 μL medium (DMEM, 10% FBS, 25 mM HEPES, 1.0 mM Sodium Pyruvate, and 0.1 mM Non Essential Amino Acids) except column 1 with medium only as blank control. The plates are incubated overnight at 37° C. and 5% CO2. On the next day, compound stocks are prepared at 40 mM in DMSO (500×) and serially diluted in DMSO in a 96-well round bottom polypropylene plate. Compounds are assayed at 10 concentrations in duplicate, 4 compounds per plate.
(§3) 4 μL of the serial DMSO dilutions are transferred to a 96 deep-well plate and 1 mL complete culture medium is added to create 2× stock for dosing. 50 μL of each 2× dosing stock is gently transferred to the corresponding well of the cell plate resulting in a 0.2% DMSO concentration and a 100 μL final volume. […] medium are added to the Control columns (Column 12) and background columns (Column 1). Cells are incubated with compound for at 37° C., 5% CO2 for 72 hr.
(§4) After incubation, 100 μL of the pre-prepared CellTiter-Glo reagent (Promega, Cat: G7571) is added in each well and then the cells are homogenized by mixing on an orbital shaker for 2 min and incubated at RT for 10 minutes to allow luminescent signal stabilization Luminescent raw data is recorded on Wallac Victor V plate reader and the IC50 value for each compound is generated using percent inhibition data. A four-parameter logistic curve is fit to each dose response.
(§5) Combination studies use the fixed ratio method, where the other therapeutic agent and the compound of the present invention are present in fixed ratios of concentrations corresponding to the IC50 equivalents of single agents. The read out for the combination studies is cell proliferation in respective cell lines using Cell Titer Glo reagents. Controls are processed similarly but without the compounds. Analysis of the data is done according to the method described in Zhao et. Al. (Clinical Cancer Research 10, 7994-8004, Dec. 1, 2004) utilizing an internally developed web based tool. A combination index is calculated for each cell proliferation inhibition activity level according to the equation below. Combination Index at activity level x=[Concentration of other therapeutic agent in the combination at the activity level x/ICx of the other therapeutic agent]+[Concentration of the compound of the present invention in the combination at the activity level x/ICx of the compound of the present invention]

Another assay has as its system MDA-MB-231. The assay is described as above. Particulars: with Paclitaxel. It is filed as cell-based. As to the method:
as §1, §2, §3, §4, §5

Another assay deals with MCF-7. The assay is described as above. It is filed as cell-based. Particulars: with Paclitaxel. The protocol:
as §1, §2, §3, §4, §5

Assay [1] concerns phosphorylated GSK3β (S9) in U87MG cells. The assay can be described thus: AlphaScreen SureFire detection of phosphorylated GSK3β (S9) in U87MG cells. It is filed as cell-based. As to conditions: Homo sapiens, U-87 MG, 1 hour, read-out: IC50, formation of phosphorylated GSK3β (S9). As to the method: The effect of compounds on the formation of endogenous phosphorylated GSK3β serine 9 (pGSK3β) are measured using the AlphaScreen SureFire® for pGSK3β(TGRGBS10K). This is a homogeneous assay format using immuno-sandwich capture of the phosphorylated analyte followed by detection using antibody-coated Alphascreen beads to generate an amplified signal.
U87MG cells are maintained in U87MG growth medium consisting of DMEM supplemented with 10% Fetal bovine serum, 1% Nonessential amino acids and 1% sodium pyruvate. For the assay, cells are harvested by standard procedures and then counted using Vi-Cell. Cells (50,000/well) are plated in 100 μL of U87MG growth medium into Costar #3596 96 well plates. Plates are incubated overnight at 37° C., 5% CO2.
On the day of the assay, cells are treated with 20 μL/well compound diluted in media containing 6% dimethylsulfoxide. […] The plate is sealed with foil, incubated at room temperature for 4 hours with gentle shaking and then read on Perkin Elmer EnVision equipped with a TurboModule using standard AlphaScreen® settings (Ex680 nm and Em520-620 nm). The percent inhibition determined from controls on each plate and ten-point compound concentration data are then fit to a four-parameter logistic equation using ACTIVITYBASE 4.0 (Assay Guidance Manual Version 5.0, 2008, Eli Lilly and Company and NIH Chemical Genomics Center).
Background: In Alpha technology, singlet oxygen from a donor bead excites a nearby acceptor bead.

Another assay deals with T1, hAKT1 Human Recombinant (Homo sapiens, UniProt P31749).
T1 construct: His tag; host or cells: insect cells
In words: AKT1 In Vitro Enzyme Assay (Transcreener Kinase ADP-FP). The assay is classed as biochemical. Particulars: 20 micromolar ATP; read-out: IC50 against AKT1. The protocol:
Compound IC50 values against AKT1 target are determined using the AKT1 Transcreener™ Kinase ADP-FP Assay. This assay assesses the activity of AKT1 in the presence of compound inhibitors by measuring the concentration of adenosine diphosphate (ADP) formed in a kinase reaction. The kinase reactions (25 μL reaction volumes) are performed in 96-well half-area black polystyrene plates. Adenosine triphosphate (ATP) is added to start the reactions. Final reaction conditions are 56 millimolar N-2-hydroxyethylpiperazine-N′-2-ethanesulfonic acid (HEPES) pH 7.4, 0.008% TRITON™ X-100, 5 millimolar magnesium chloride, 30 micromolar Crosstide peptide, 20 micromolar ATP, hAKT1 Human Recombinant, V-AKT Murine Thymoma Viral Oncogene Homolog 1, histidine-tagged, expressed in insect cells, 4% dimethylsulfoxide and serial dilutions of compound (diluted 1:3 from 20,000 to 1 nanomolar). […] Quenched reactions are incubated for 4-16 hours, and then read in a Tecan Ultra Evolution plate reader in Fluorescence Polarization mode using polarizing filters of Ex612 nm and Em633 nm wavelength. […] The IC50 value for each compound is derived using percent inhibition data which is calculated using the micromolar ADP reaction data relative to on-plate controls (active enzyme versus 100 millimolar inhibited enzyme controls). […]

Assay [2] addresses T2, ROCK2 Human recombinant enzyme (Homo sapiens, UniProt O75116).
T2 construct: ROCK2 Human recombinant enzyme (residues 11-552, histidine-tagged, expressed in insect cells); His tag; host or cells: insect cells
In words: ROCK2 In Vitro Enzyme Assay (Transcreener Kinase ADP-FP). The assay is classed as biochemical. Particulars: 10 micromolar ATP; read-out: IC50 against ROCK2. As to the method:
Compound IC50 values against ROCK2 kinase are determined using the ROCK2 Transcreener™ Kinase ADP-FP Assay. This assay assesses the activity of ROCK2 in the presence of compound inhibitors by measuring the concentration of ADP formed in a kinase reaction. The kinase reactions (25 μL reaction volumes) are performed in 96-well half-area black polystyrene plates. Enzyme is added to start the reactions. Final reaction conditions are 20 millimolar 3-(N-Morpholino)-propanesulfonic acid pH 7.4, 4 millimolar beta-glycero-phosphate, 0.01% TRITON™ X-100, 5 millimolar magnesium chloride, 25 micromolar peptide substrate (sequence RFARKGSLRQKNV (SEQ ID NO:1)), 10 micromolar ATP, ROCK2 Human recombinant enzyme (residues 11-552, histidine-tagged, expressed in insect cells), 4% dimethysulfoxide and serial dilutions of compound (diluted 1:3 from 20,000 to 1 nanomolar). […] Quenched reactions are incubated for 4-16 hours, and then read in a Tecan Ultra Evolution plate reader in Fluorescence Polarization mode using polarizing filters of Ex612 nm and Em633 nm wavelength. […] The IC50 value for each compound is derived using percent inhibition data which is calculated using the micromolar ADP reaction data relative to on-plate controls (active enzyme versus 100 millimolar EDTA-inhibited enzyme controls). […]

The structures appear in SMILES notation. Where two headings read alike, the source gives them in different places.

T1 sequence (P31749 whole entry): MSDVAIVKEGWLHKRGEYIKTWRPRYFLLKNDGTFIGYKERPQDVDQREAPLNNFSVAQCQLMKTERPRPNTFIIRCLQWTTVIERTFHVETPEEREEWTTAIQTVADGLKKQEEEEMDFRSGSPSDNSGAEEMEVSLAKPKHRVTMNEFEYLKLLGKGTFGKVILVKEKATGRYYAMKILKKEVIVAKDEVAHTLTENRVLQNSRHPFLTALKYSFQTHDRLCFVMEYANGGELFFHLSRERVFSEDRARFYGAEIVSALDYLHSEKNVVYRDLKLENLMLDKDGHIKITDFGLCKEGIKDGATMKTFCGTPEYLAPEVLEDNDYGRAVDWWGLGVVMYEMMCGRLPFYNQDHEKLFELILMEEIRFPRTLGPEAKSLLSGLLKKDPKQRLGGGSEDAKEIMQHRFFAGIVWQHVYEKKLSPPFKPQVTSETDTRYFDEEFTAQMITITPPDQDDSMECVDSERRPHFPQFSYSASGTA
T2 sequence (O75116 11-552): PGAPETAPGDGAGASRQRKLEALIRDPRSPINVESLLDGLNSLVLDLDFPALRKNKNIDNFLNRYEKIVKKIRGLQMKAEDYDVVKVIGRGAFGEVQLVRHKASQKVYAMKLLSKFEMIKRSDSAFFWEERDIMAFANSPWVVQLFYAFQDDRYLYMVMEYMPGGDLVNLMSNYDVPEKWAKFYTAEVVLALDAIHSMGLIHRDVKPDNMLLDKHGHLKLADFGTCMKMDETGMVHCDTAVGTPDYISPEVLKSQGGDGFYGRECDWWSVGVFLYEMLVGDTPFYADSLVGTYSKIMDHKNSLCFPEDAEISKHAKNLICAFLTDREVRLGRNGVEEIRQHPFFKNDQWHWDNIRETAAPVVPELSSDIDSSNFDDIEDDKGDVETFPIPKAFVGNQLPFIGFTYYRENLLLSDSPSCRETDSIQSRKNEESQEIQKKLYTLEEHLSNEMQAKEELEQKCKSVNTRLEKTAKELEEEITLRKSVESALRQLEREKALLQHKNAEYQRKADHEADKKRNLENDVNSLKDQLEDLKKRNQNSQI

With `CCc1cn(CCN2CCCC2)c(C2CCN(c3ncnc4c3[C@H](C(F)(F)F)CC(=O)N4)CC2)n1` [Example 26, (R)-4-(4-(4-ethyl-1-(2-(pyrrolidin-1-yl)ethyl)-1H-imidazol-2-yl)piperidin-1-yl)-5-(trifluoromethyl)-5,6-dihydropyrido[2,3-d]pyrimidin-7(8H)-one], the inhibition at 12.5 mg/kg is 36.8% in the assay with AKT (read-out: Mean % Inhibition FOXO3a (T32)), 21.7% in the assay on AKT (read-out: Mean % Inhibition pAKT (S473)), 34.4% in the assay on AKT (read-out: Mean % Inhibition pGSK3β (S9)) and 8.1% with AKT (read-out: Mean % Inhibition pPRAS40 (T246)).
Consider `C[C@@H]1CC(=O)Nc2ncnc(N3CCC(c4nc(C5CCOCC5)cn4CCN4CCCC4)CC3)c21` [Example 73, (R)-5-Methyl-4-(4-(1-(2-(pyrrolidin-1-yl)ethyl)-4-(tetrahydro-2H-pyran-4-yl)-1H-imidazol-2-yl)piperidin-1-yl)-5,6-dihydropyrido[2,3-d]pyrimidin-7(8H)-one], for which the “Combination Index at 50% Inhibition” value was 0.82 in the assay with H1155 (with Cisplatin); 0.87 in the assay on H1155 (with Gemcitabine); 0.29 in the assay with H1155 (with Pemetrexed); 1.25 with MDA-MB-231; 0.56 in the assay on MCF-7.
Consider `C[C@@H]1CC(=O)Nc2ncnc(N3CCC(c4nc(Cl)cn4CCN4CCCC4)CC3)c21` [Example 41, (R)-4-(4-(4-chloro-1-(2-(pyrrolidin-1-yl)ethyl)-1H-imidazol-2-yl)piperidin-1-yl)-5-methyl-5,6-dihydropyrido[2,3-d]pyrimidin-7(8H)-one], for which the figures for the IC50 (in assay [1]; on hAKT1 Human Recombinant; in assay [2]) were 1500 nM, 17 nM and above 20000 nM, respectively.

The term inhibition denotes the drop in the measured response relative to a control, in per cent. What is called IC50 is the concentration at which inhibition is half-maximal.
